Values joined by “and” are separate entries in the source; they are usually repeats but may differ in a detail not shown here. Equal entries are not always repeated.
Columns and labels:
[1] = system: D. immitis (Michigan susceptible strain); test: Rat (SQ) heartworm model, compiled dose correlation data; type: in vivo
[2] = system: D. immitis (UGA susceptible strain); test: Dog (oral) heartworm model, compiled dose correlation data; type: in vivo
[3] = system: D. immitis (Michigan strain); test: Efficacy of compounds in the D. immitis immunosuppressed rat model (third study, subcutaneous dosing); type: in vivo
[4] = system: D. immitis ZoeMI-01 (ZM1) strain; test: Oral moxidectin in immunosuppressed rats infected with ZoeMI-01 strain; type: in vivo, rat; details: for Mean worm counts: geometric mean
D. immitis JYD-34 strain = test: Oral moxidectin in immunosuppressed rats infected with JYD-34 strain; type: in vivo, rat; details: for Mean worm counts: geometric mean
[5] = rat, in vivo
[6] = SQ 1 μg/kg, dosed month 1 post-inoculation
[7] = rat, SC 1.00 mg/kg day 30 post-inoculation, necropsy day 112-114
[8] = rat, SC 5.00 mg/kg day 30 post-inoculation, necropsy day 112-114
[9] = oral 3 μg/kg day 28, necropsy day 120
[10] = oral 3 μg/kg days 28, 56, 84, necropsy day 120
[11] = oral 12 μg/kg day 28, necropsy day 120
[12] = oral 24 μg/kg day 28, necropsy day 120
[13] = n = 4, oral 3 μg/kg day 28, necropsy day 120
[14] = n = 4, oral 3 μg/kg days 28, 56, 84, necropsy day 120
[15] = n = 4, oral 24 μg/kg day 28, necropsy day 120
[16] = rat, SC 0.001 mg/kg day 30 post-inoculation, necropsy day 112-114
[17] = rat, SC 0.003 mg/kg day 30 post-inoculation, necropsy day 112-114

With CC(C)C[C@H]1C(=O)O[C@H](Cc2ccc(N3CCOCC3)cc2)C(=O)N(C)[C@@H](CC(C)C)C(=O)O[C@H](C)C(=O)N(C)[C@@H](CC(C)C)C(=O)O[C@H](Cc2ccc(N3CCOCC3)cc2)C(=O)N(C)[C@@H](CC(C)C)C(=O)O[C@H](C)C(=O)N1C [EMO, emodepside] the “% Efficacy” value [1, 6] was 76%, the “% Efficacy” value ([1]; SQ 5 μg/kg, dosed month 1 post-inoculation) was 100% and the “% Efficacy” value ([2]; oral 1 μg/kg, dosed month 1 post-inoculation) was 58%. For the same compound, the “% Efficacy” value ([2]; oral 3 μg/kg, dosed month 1 post-inoculation) was 88%, the “% Efficacy” value ([2]; oral 5 μg/kg, dosed month 1 post-inoculation) was 97% and the “% Efficacy” value ([2]; oral 10 μg/kg, dosed month 1 post-inoculation) was 97%. The “Mean worm count (range)” value ([3]; arithmetic mean, rat, SC 1.00 mg/kg day 30 post-inoculation, necropsy day 112-114) was 1.8, the “Mean worm count (range)” value ([3]; arithmetic mean, rat, SC 5.00 mg/kg day 30 post-inoculation, necropsy day 112-114) was 0 and the prevention of heartworm ([3]; rat model, dose not stated) was 100%. For the same compound, the “# rats with infection (n = 6)” value [3, 7] was 3, the “% Efficacy” value [3, 7] was 75.6% and the “# rats with infection (n = 6)” value [3, 8] was 0. For the same compound, the “% Efficacy” value [3, 8] was 100%, the “# of Ag+” value ([3]; rat, in vivo, sc, 1 mg/kg) was 1 and the “# of Ag+” value ([3]; rat, in vivo, sc, 5 mg/kg) was 1.
In the case of CC[C@H](C)[C@H]1O[C@]2(CC[C@@H]1C)C[C@@H]1C[C@@H](C/C=C(\C)[C@@H](O[C@H]3C[C@H](OC)[C@@H](O[C@H]4C[C@H](OC)[C@@H](O)[C@H](C)O4)[C@H](C)O3)[C@@H](C)/C=C/C=C3\CO[C@@H]4[C@H](O)C(C)=C[C@@H](C(=O)O1)[C@]34O)O2 [IVM, ivermectin], the “% Efficacy” value ([1]; in vivo) is reported as 89% and 97-100% and 100%, the “% Efficacy” value ([2]; in vivo, po) is reported as 53% and 83-97% and 98% and 100% and 64% and the efficacy ([3]; rat, in vivo) is reported as 96.5%. The “# of Ag+” value ([3]; rat, in vivo, sc, 0.001 mg/kg) was 2, the “# rats with infection (n = 6)” value ([3]; rat, in vivo, sc, 0.001 mg/kg) was 5 and the “% Efficacy” value ([3]; rat, in vivo, sc, 0.001 mg/kg) was 89.3%. For the same compound, the “Mean worm count (range)” value ([3]; rat, in vivo, sc, 0.001 mg/kg) was 0.8, the “# of Ag+” value ([3]; rat, in vivo, sc, 0.003 mg/kg) was 2 and the “# rats with infection (n = 6)” value ([3]; rat, in vivo, sc, 0.003 mg/kg) was 1. The “% Efficacy” value ([3]; rat, in vivo, sc, 0.003 mg/kg) was 96.5% and the “Mean worm count (range)” value ([3]; rat, in vivo, sc, 0.003 mg/kg) was 0.3.
Compound CO/N=C1\C[C@]2(C[C@@H]3C[C@@H](C/C=C(\C)C[C@@H](C)/C=C/C=C4\CO[C@@H]5[C@H](O)C(C)=C[C@@H](C(=O)O3)[C@]45O)O2)O[C@H](/C(C)=C/C(C)C)[C@H]1C [MOX, moxidectin] has a Mean worm counts [4, 9] of 1.1, a Mean worm counts [4, 10] of 0 and a Mean worm counts [4, 11] of 0. For the same compound, the Mean worm counts [4, 12] was 0, the “Number of rats infected” value [4, 13] was 3 and the “Number of rats infected” value [4, 14] was 0. For the same compound, the “Number of rats infected” value ([4]; n = 4, oral 12 μg/kg day 28, necropsy day 120) was 0, the “Number of rats infected” value [4, 15] was 0 and the “% Efficacy” value [4, 9] was 81%. The “% Efficacy” value [4, 10] was 100%, the “% Efficacy” value [4, 11] was 100% and the “% Efficacy” value [4, 12] was 100%. For the same compound, the Mean worm counts (D. immitis JYD-34 strain; [9]) was 6.0, the Mean worm counts (D. immitis JYD-34 strain; [10]) was 2.4 and the Mean worm counts (D. immitis JYD-34 strain; [11]) was 2.8. The Mean worm counts (D. immitis JYD-34 strain; [12]) was 0.5, the “Number of rats infected” value (D. immitis JYD-34 strain; n = 4, one rat died pre-necropsy, oral 12 μg/kg day 28, necropsy day 120) was “*3” and the “Number of rats infected” value (D. immitis JYD-34 strain; [13]) was 4. The “Number of rats infected” value (D. immitis JYD-34 strain; [14]) was 4, the “Number of rats infected” value (D. immitis JYD-34 strain; [15]) was 1 and the “% Efficacy” value (D. immitis JYD-34 strain; [9]) was 0%. The “% Efficacy” value (D. immitis JYD-34 strain; [10]) was 38%, the “% Efficacy” value (D. immitis JYD-34 strain; [11]) was 28% and the “% Efficacy” value (D. immitis JYD-34 strain; [12]) was 87%. For the same compound, the “% Efficacy” value [1, 6] was 92%, the “% Efficacy” value ([1]; SQ 3 μg/kg, dosed month 1 post-inoculation) was 100% and the “% Efficacy” value ([2]; oral 0.5 μg/kg, dosed month 2 post-inoculation) was 100%. The “% Efficacy” value ([2]; oral 0.625 μg/kg, dosed month 2 post-inoculation) was 100%, the “% Efficacy” value ([2]; oral 1.25 μg/kg, dosed months 1, 2 post-inoculation) was 100% and the “Mean worm count (range)” value ([3]; arithmetic mean, rat, SC 0.001 mg/kg day 30 post-inoculation, necropsy day 112-114) was 0.67. The “Mean worm count (range)” value ([3]; arithmetic mean, rat, SC 0.003 mg/kg day 30 post-inoculation, necropsy day 112-114) was 0, the efficacy ([3]; rat model, at their use-dose) was 100% and the “# rats with infection (n = 6)” value [3, 16] was 4. For the same compound, the “% Efficacy” value [3, 16] was 91.7%, the “# rats with infection (n = 6)” value [3, 17] was 0 and the “% Efficacy” value [3, 17] was 100%. The “# of Ag+” value ([3]; rat, in vivo, sc, 0.001 mg/kg) was 1 and the “# of Ag+” value ([3]; rat, in vivo, sc, 0.003 mg/kg) was 0.
In the case of CC(=O)OCC(=O)[C@@]1(O)CC[C@H]2[C@@H]3CCC4=CC(=O)CC[C@]4(C)[C@H]3[C@@H](O)C[C@@]21C [hydrocortisone, hydrocortisone acetate], the mortality [5] is reported as “increased incidence of mortality”.

Reference: patent US20250000069A1, “ANTHELMINTIC LABORATORY ANIMAL MODEL FOR HEARTWORM” (priority 2019, published 2025)
